According to publication PMC12498190, “A Photocaged N‐Phosphonopiperidinone as a Selective Photo‐Cleavable DPP8/9 Inhibitor” (Chembiochem, 2025):
Where two headings read alike, the source gives them in different places.

Legend:
Assay type in all cases: biochemical
human DPP8 [1] = molecular target: T1, human DPP8 (Homo sapiens, UniProt Q6V1X1); assay: Progress-curve kinetics of covalent DPP8 inhibition (kinact, KI); details: dark
T1 construct: purchased Proteros Biostructures GmbH, Germany
From the text: As previously shown by us, 1 inhibits DPP8 and DPP9 via a covalent modification of the active site serine.^[ [31] ^] Therefore, we also measured the time dependence of this covalent modification of the target enzyme by recording progress curves for the inhibition of DPP8 and 9 and using them to calculate the corresponding binding affinity (KI), maximum enzyme inhibition rate (kinact) as well as the efficiency of covalent bond formation (kinact/KI) values for 5 after and without green light irradiation ( Figure S1 and Table S1, Supporting Information).
To calculate the reaction rate of covalent bond formation between DPP proteins and the inhibitor, kinact, KI, and kinact/KI were determined as previously described.^[ [49] ^, [50] ^] To this end, a dilution series of 5 was irradiated using a green LED lamp (λ = 520−530 nm; Eurolite, Germany) for 5 min and subsequently mixed with 250 µM GP‐AMC. The mixture was then added to 10 nM enzyme, and the resulting activity was measured for a maximum of 60 min at 30 °C. Fluorescence intensities were plotted against time and data were fitted to the following equation: [drawing 1] using Graph‐Pad Prism v10.4.1. The obtained pseudo first‐order rate constant was used to determine kinact and KI by fitting the plot of kobs against inhibitor concentration to the following equation: [drawing 2] . The efficiency of covalent bond formation (kinact/KI) was calculated by the ratio of kinact/KI. All measurements were performed in triplicate, and error bars represent standard errors of the fit.
Supplementary Figure 1. Kinetic analysis of DPP8 and DPP9 inhibition by compound 5. The pseudo-first order rate constant (kobs) was calculated from an exponential regression of progress curves and plotted against the concentration of compound 5. All measurement were performed in triplicate (n = 3 technical replicates), mean values are shown and error bars indicate the standard error of the mean (SEM). Inhibition assay was performed with DPP8 (A, B) and DPP9 (C, D) under ‘dark’ (A, C) and ‘light’ (B, D) conditions. […]

DPP9 = DPP9 (Homo sapiens, UniProt Q86TI2); assay: DPP9 enzyme inhibition assay, AMC release from GP-AMC; parameters: purchased Proteros Biostructures GmbH, Germany; details: for IC50: read-out: Apparent IC50
Chain of DPP9 (Q86TI2 whole entry): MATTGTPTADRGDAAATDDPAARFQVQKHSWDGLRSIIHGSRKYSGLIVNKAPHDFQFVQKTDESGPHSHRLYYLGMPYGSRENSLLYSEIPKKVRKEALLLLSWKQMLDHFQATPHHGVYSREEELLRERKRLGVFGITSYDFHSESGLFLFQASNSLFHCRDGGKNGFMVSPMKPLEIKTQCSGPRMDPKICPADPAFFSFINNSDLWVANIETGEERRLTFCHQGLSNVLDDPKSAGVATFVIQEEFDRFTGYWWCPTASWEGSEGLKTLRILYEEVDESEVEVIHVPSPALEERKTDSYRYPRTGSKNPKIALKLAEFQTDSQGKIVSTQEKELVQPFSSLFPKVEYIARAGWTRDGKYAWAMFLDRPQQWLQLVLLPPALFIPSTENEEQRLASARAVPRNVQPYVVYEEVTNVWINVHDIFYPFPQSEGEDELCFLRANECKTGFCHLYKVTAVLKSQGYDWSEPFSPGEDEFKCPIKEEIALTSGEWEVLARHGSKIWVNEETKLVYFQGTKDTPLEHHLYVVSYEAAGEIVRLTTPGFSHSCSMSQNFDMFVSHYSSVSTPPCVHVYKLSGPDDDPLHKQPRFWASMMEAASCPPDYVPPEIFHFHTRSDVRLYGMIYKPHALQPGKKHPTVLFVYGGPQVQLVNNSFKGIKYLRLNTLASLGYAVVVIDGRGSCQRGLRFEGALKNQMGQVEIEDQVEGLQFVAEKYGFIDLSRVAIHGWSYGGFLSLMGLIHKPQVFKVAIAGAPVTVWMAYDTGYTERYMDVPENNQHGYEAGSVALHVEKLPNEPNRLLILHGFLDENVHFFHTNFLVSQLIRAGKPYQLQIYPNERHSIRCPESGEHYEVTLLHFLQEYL
From the text: (§1) We then continued to investigate the biochemical properties of the photocaged compound 5 versus the photoreleased product resembling inhibitor 1. To this end, we performed biochemical enzyme inhibition assays with DPP8 and DPP9 before and after irradiation of 5. Resulting DPP8/9 inhibition was quantified by following the DPP8‐ or DPP9‐mediated proteolysis of the fluorophore 7‐amino‐4‐methylcoumarin (AMC) from the model substrate Gly‐Pro‐AMC (Figure 1C,D and Table 1 ). To induce photocleavage of 5, reaction mixtures were irradiated for 5 min with the same green LED lamp as before, followed by a pre‐incubation of 45 min with the photoreleased inhibitor prior to substrate addition.
(§2) Enzyme activity of human DPP4, DPP8, and DPP9 (Proteros Biostructures GmbH, Germany) was determined by measuring the initial velocity of AMC release from the fluorogenic substrate GP‐AMC (Sigma Aldrich, USA) using a Tecan Spark 10 M multimode microplate reader (Tecan Group Ltd., Switzerland) in activity buffer (20 mM HEPES/KOH pH 7.3, 110 mM potassium acetate, 2 mM magnesium acetate, 0.5 mM EGTA, 0.02% Tween 20, supplemented with 1 mM DTT) and a final volume of 20 μL for maximal 30 min at 30 °C. Prior to the activity measurement, 10 nM of the corresponding enzyme was incubated for 45 min at 30 °C and gentle shaking with the indicated compounds at concentrations ranging from 0 to 100 μM, followed by irradiation with a green LED lamp (λ = 520−530 nm; Eurolite, Germany) for 5 min. The corresponding compounds were dissolved in DMSO and diluted in activity buffer (final DMSO concentration: 1%). To the inhibitor–enzyme mixture, GP‐AMC was then added to a final concentration of 250 μM, and the activity measurement was started. The resulting enzyme activity was calculated from the slope (fluorescence release over time) and plotted against the concentrations of the inhibitor. Apparent IC50 values were calculated using Graph‐Pad Prism v10.4.1 using the equation: [Inhibitor] versus response‐Variable slope (four parameters). All measurements were performed in triplicate, and error bars represent standard errors of the fit.

human DPP8 [2] = molecular target: T1, human DPP8; assay: DPP8 enzyme inhibition assay, AMC release from GP-AMC; details: for IC50: 45 min pre-incubation, read-out: Apparent IC50
From the text: as §1, §2

T1 sequence (Q6V1X1 whole entry): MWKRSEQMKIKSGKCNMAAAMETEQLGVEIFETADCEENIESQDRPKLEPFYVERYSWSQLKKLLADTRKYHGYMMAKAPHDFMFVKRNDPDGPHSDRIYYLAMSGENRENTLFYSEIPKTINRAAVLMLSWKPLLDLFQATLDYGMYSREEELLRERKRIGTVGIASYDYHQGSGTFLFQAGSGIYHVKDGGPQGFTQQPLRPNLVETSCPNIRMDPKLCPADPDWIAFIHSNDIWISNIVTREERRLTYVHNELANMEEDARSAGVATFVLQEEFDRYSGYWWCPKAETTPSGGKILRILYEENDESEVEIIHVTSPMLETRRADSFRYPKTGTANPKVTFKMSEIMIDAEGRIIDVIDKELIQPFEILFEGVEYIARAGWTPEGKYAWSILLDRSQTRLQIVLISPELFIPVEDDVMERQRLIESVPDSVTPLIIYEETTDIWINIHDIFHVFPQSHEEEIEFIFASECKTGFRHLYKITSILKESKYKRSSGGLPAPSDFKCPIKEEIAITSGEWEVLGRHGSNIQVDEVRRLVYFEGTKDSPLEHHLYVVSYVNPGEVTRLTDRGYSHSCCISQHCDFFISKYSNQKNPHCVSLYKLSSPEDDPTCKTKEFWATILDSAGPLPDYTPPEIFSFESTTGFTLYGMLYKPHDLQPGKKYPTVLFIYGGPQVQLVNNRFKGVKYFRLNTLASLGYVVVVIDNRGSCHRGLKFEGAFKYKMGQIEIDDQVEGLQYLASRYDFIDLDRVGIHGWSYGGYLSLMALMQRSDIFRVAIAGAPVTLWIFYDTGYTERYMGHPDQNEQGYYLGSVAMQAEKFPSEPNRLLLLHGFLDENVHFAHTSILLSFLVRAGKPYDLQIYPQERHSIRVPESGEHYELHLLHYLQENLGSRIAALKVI

`CCCCCc1ccc(SCCP(=O)(OCC)N2CCC[C@H](NC(=O)OCC3=C4C(C)=CC(C)=[N+]4[B-](C)(C)n4c(C)cc(C)c43)C2=O)cc1` (stereo partly drawn) [Compound 5] was tested, and the KI (inactivation) (human DPP8 [1]) was 8.94 µM, the kinact (human DPP8 [1]) was 0.002 s⁻¹ and the kinact/KI (human DPP8 [1]) was 223 M⁻¹ s⁻¹. The “Dark/light ratio of apparent IC50” value (DPP9) was 40, the “Increase in potency after green light-mediated photorelease” value (DPP9; apparent IC50 dark vs light) was about 40 fold and the IC50 (DPP9; dark (without green light irradiation), 45 min pre-incubation) was 24.7 µM. The IC50 (DPP9; light (5 min green LED, 520-530 nm), 45 min pre-incubation) was 0.621 ± 0.054 µM, the IC50 (DPP9; without irradiation) was 24.7 ± 6.8 µM and the “Dark/light ratio of apparent IC50” value (human DPP8 [2]) was 30. For the same compound, the “Increase in potency after green light-mediated photorelease” value (human DPP8 [2]; apparent IC50 dark vs light) was “about 30 fold”, the IC50 (human DPP8 [2]; dark (without green light irradiation)) was 1.1 µM and the IC50 (human DPP8 [2]; light (5 min green LED, 520-530 nm)) was 0.037 ± 0.003 µM.
